Results from BigSolDB 2.1.

CC[C@H](C)[C@H]1O[C@]2(C=C[C@@H]1C)C[C@@H]1C[C@@H](C/C=C(\C)[C@@H](O[C@H]3C[C@H](OC)[C@@H](O[C@H]4C[C@H](OC)[C@@H](O)[C@H](C)O4)[C@H](C)O3)[C@@H](C)/C=C/C=C3\CO[C@@H]4[C@H](O)C(C)=C[C@@H](C(=O)O1)[C@]34O)O2
solubility (mole fraction)
Conditions | 283.15 K | 288.15 K | 293.15 K | 298.15 K | 303.15 K | 308.15 K | 313.15 K
in acetone | 0.00916 | 0.0104 | 0.0119 | 0.0134 | 0.0151 | 0.0175 | 0.0194
in isopropanol | 0.00481 | 0.00589 | 0.0071 | 0.00804 | 0.0096 | 0.0113 | 0.0137
